From patent US20100022483A1, “Substituted Tetracycline Compounds” (Paratek Pharmaceuticals, Inc., priority 2008, published 2010)
≈ marks a conversion by molar mass, not a printed value. Read-outs that look alike come from different tables or passages of the source.

Columns and labels:
[1] = system: gram positive bacteria; experiment: In vitro anti-bacterial activity assay (broth dilution MIC), gram positive bacteria; type: cell-based, S. aureus; settings: 18 h
Source text: (§1) Bacterial infections may be caused by a wide variety of gram positive and gram negative bacteria. Some of the compounds of the invention are useful as antibiotics against organisms which are resistant and/or sensitive to other tetracycline compounds. The antibiotic activity of the tetracycline compounds of the invention may by using the in vitro standard broth dilution method described in Waitz, J. A., CLSI, Document M7-A2, vol. 10, no. 8, pp. 13-20, 2nd edition, Villanova, Pa. (1990).
(§2) The following assay was used to determine the efficacy of the tetracycline compounds against gram positive and gram negative bacteria. 2 mg of each compound was dissolved in 100 μl of DMSO. […] The tetracycline compound solutions were diluted to 50 μL volumes, with a test compound concentration of 0.098 μg/ml. Optical density (OD) determinations were made from fresh log-phase broth cultures of the test strains. Dilutions were made to achieve a final cell density of […] CFU/ml. At OD=1, cell densities for different genera were approximately:
(§3) 50 μl of the cell suspensions were added to each well of microtiter plates. The final cell density was approximately 5×10^5 CFU/ml. These plates were incubated at 35° C. in an ambient air incubator for approximately 18 hours. The plates were read with a microplate reader and were visually inspected when necessary. The MIC was defined as the lowest concentration of the tetracycline compound that inhibits growth. Table 3 includes MIC data for several substituted tetracycline compounds.

[2] = system: gram negative bacteria; experiment: In vitro anti-bacterial activity assay (broth dilution MIC), gram negative bacteria; type: cell-based, E. coli
Source text: as §1, §2, §3

[3] = Mammalian cytotoxicity assay (resazurin), COS-1 cells; type: cell-based; settings: African green monkey, read-out: Cytotox. COS-1
Method: (§4) COS-1 and CHO-K1 cell suspensions were prepared, seeded into 96-well tissue culture treated black-walled microtiter plates (density determined by cell line), and incubated overnight at 37° C., in 5% CO2 and approximately 95% humidity. The following day, serial dilutions of compound were prepared under sterile conditions and transferred to cell plates. Cell/Compound plates were incubated under the above conditions for 24 hours. Following the incubation period, media/compound was aspirated and 50 μl of resazurin (0.042 mg/ml in PBS w/Ca and Mg) is added. The plates were then incubated under the above conditions for 2 hours and then placed in the dark at room temperature for an additional 30 minutes. Fluorescence measurements were taken (excitation 535 nm, emission 590 nm). The IC50 (concentration of compound causing 50% growth inhibition) was then calculated. Table 3 includes IC50 data for several substituted tetracycline compounds.

[4] = in vitro; type: cell-based; settings: Chinese hamster, Cytotox. CHO-K1
Method: as §4

[5] = system: 3T3 fibroblast cells; experiment: In vitro phototoxicity assay (neutral red; UV light-treated vs dark control plates); type: cell-based; settings: for Photo Toxicity UV Tox50: UV light 50 minutes; for Photo Toxicity Dark Tox50: dark control plate
Method: 3T3 fibroblast cells were harvested and plated at a concentration of 1×10^5 cells/mL and the plates were incubated overnight at 37° C., in 5% CO2 and approximately 95% humidity. On the following day the medium was removed from the plates and replaced with Hanks' Balanced Salt Solution (HBSS). Compound dilutions were made in HBSS and added to the plates. For each compound tested, a duplicate plate was prepared that was not exposed to light as a control for compound toxicity. Plates were then incubated in a dark drawer (for controls), or under UV light (meter reading of 1.6-1.8 mW/cm^2) for 50 minutes. Cells were then washed with HBSS, fresh medium was added, and plates were incubated overnight as described above. The following day neutral red was added as an indicator of cell viability. The plates were then incubated for an additional 3 hours. Cells were then washed with HBSS and blotted on absorbent paper to remove excess liquid. A solution of 50% EtOH, 10% glacial acetic acid was added and after 20 minutes incubation the plate's absorbance at 535 nm was read using a Wallac Victor 5 spectrophotometer. The phototoxicity reflected the difference between the light-treated and control cultures. Table 3 includes phototoxicity (μM) data for several substituted tetracycline compounds.

[6] = Staphylococcus aureus, S. aureus MRSA5, read-out: Median MIC's G+ S. aureus MRSA5
[7] = Staphylococcus aureus, S. aureus RN450, read-out: Median MIC's G+ S. aureus RN450
[8] = Streptococcus pneumoniae, S. pneumoniae 157E-Strep, read-out: Median MIC's G+ S. pneumoniae 157E-Strep
[9] = Escherichia coli, 18 h, E. coli D1 209, read-out: Median MIC's G− E. coli D1 209
[10] = Escherichia coli, 18 h, E. coli MG 1655, read-out: Median MIC's G− E. coli MG 1655
[11] = Escherichia coli, ATCC25922, 18 h, E. coli ATCC 25922, read-out: Median MIC's G− E. coli ATCC 25922
[12] = Pseudomonas aeruginosa, 18 h, P. aeruginosa K201 PAO6609, read-out: Median MIC's G− P. aeruginosa K201 PAO6609

SMILES	MIC [1, 6]	MIC [1, 7]	MIC [1, 8]	MIC [2, 9]	MIC [2, 10]	MIC [2, 11]	MIC [2, 12]	IC50 at 24 h [3]	IC50 at 24 h [4]	Photo Toxicity UV Tox50 [5]	Photo Toxicity Dark Tox50 [5]
CC1CCN(CC(=O)c2ccc(O)c3c2C[C@H]2C[C@H]4[C@H](N(C)C)C(O)=C(C(N)=O)C(=O)[C@@]4(O)C(O)=C2C3=O)CC1 [BH, 7-[2-(4-methyl-piperidin-1-yl)acetyl]-Sancycline]	0.06 µg/mL (≈ 0.108 µM)	0.06 µg/mL (≈ 0.108 µM)	0.06 µg/mL (≈ 0.108 µM)	0.25 µg/mL (≈ 0.452 µM)	0.06 µg/mL (≈ 0.108 µM)	0.06 µg/mL (≈ 0.108 µM)	32 µg/mL (≈ 57.8 µM)	> 136 µM	> 136 µM	>135.66 µM	>135.66 µM
CN(C)[C@@H]1C(O)=C(C(N)=O)C(=O)[C@@]2(O)C(O)=C3C(=O)c4c(O)ccc(-c5ccc(CNCc6cccnc6)o5)c4C[C@H]3C[C@@H]12 [BI]	8 µg/mL (≈ 13.3 µM)	0.06 µg/mL (≈ 0.0999 µM)	0.06 µg/mL (≈ 0.0999 µM)	2 µg/mL (≈ 3.33 µM)	4 µg/mL (≈ 6.66 µM)	1 µg/mL (≈ 1.66 µM)	64 µg/mL (≈ 107 µM)	> 39.3 µM	> 26 µM	>126.75 µM	>126.75 µM
CN(Cc1cccnc1)Cc1cccc(-c2ccc(O)c3c2C[C@H]2C[C@H]4[C@H](N(C)C)C(O)=C(C(N)=O)C(=O)[C@@]4(O)C(O)=C2C3=O)c1 [BJ]	2 µg/mL (≈ 3.2 µM)	0.25 µg/mL (≈ 0.4 µM)	0.06 µg/mL (≈ 0.096 µM)	32 µg/mL (≈ 51.2 µM)	64 µg/mL (≈ 102 µM)	16 µg/mL (≈ 25.6 µM)	64 µg/mL (≈ 102 µM)	> 12.3 µM	> 25.1 µM	>122.6 µM	>122.6 µM
CN(C)Cc1ccc(-c2ccc(O)c3c2C[C@H]2C[C@H]4[C@H](N(C)C)C(O)=C(C(N)=O)C(=O)[C@@]4(O)C(O)=C2C3=O)[nH]1 [BK]	4 µg/mL (≈ 7.45 µM)	0.25 µg/mL (≈ 0.466 µM)	0.13 µg/mL (≈ 0.242 µM)	64 µg/mL (≈ 119 µM)	4 µg/mL (≈ 7.45 µM)	4 µg/mL (≈ 7.45 µM)	32 µg/mL (≈ 59.6 µM)	> 148 µM	> 148 µM	>147.66 µM	>147.66 µM
CN(CCC#N)Cc1cccc(-c2ccc(O)c3c2C[C@H]2C[C@H]4[C@H](N(C)C)C(O)=C(C(N)=O)C(=O)[C@@]4(O)C(O)=C2C3=O)c1 [BL]	2 µg/mL (≈ 3.41 µM)	0.06 µg/mL (≈ 0.102 µM)	0.06 µg/mL (≈ 0.102 µM)	16 µg/mL (≈ 27.3 µM)	16 µg/mL (≈ 27.3 µM)	4 µg/mL (≈ 6.82 µM)	64 µg/mL (≈ 109 µM)	> 13.6 µM	> 13.6 µM	>136.45 µM	>136.45 µM
CN(CCOC(C)(C)C)Cc1cccc(-c2ccc(O)c3c2C[C@H]2C[C@H]4[C@H](N(C)C)C(O)=C(C(N)=O)C(=O)[C@@]4(O)C(O)=C2C3=O)c1 [BM]	2 µg/mL (≈ 3.16 µM)	0.13 µg/mL (≈ 0.205 µM)	0.06 µg/mL (≈ 0.0947 µM)	4 µg/mL (≈ 6.31 µM)	8 µg/mL (≈ 12.6 µM)	4 µg/mL (≈ 6.31 µM)	64 µg/mL (≈ 101 µM)	22.8 µM	21.6 µM	5.93 µM	>104.43 µM
CN(C)[C@H]1C(O)=C(C(N)=O)C(=O)[C@@]2(O)C(O)=C3C(=O)c4c(O)ccc(-c5cccc(CCCN6CCCCC6)c5)c4C[C@H]3C[C@@H]12 [BN]	32 µg/mL (≈ 52 µM)	4 µg/mL (≈ 6.5 µM)	0.25 µg/mL (≈ 0.406 µM)	32 µg/mL (≈ 52 µM)	32 µg/mL (≈ 52 µM)	16 µg/mL (≈ 26 µM)	64 µg/mL (≈ 104 µM)	> 63 µM	> 63 µM	33.41 µM	>200 µM
COCCN(C)CC(=O)c1ccc(O)c2c1C[C@H]1C[C@H]3[C@H](N(C)C)C(O)=C(C(N)=O)C(=O)[C@@]3(O)C(O)=C1C2=O [BO]	4 µg/mL (≈ 7.36 µM)	0.5 µg/mL (≈ 0.92 µM)	0.25 µg/mL (≈ 0.46 µM)	64 µg/mL (≈ 118 µM)	2 µg/mL (≈ 3.68 µM)	2 µg/mL (≈ 3.68 µM)	64 µg/mL (≈ 118 µM)	> 154 µM	> 154 µM	>154.09 µM	>154.09 µM
CN(C)[C@@H]1C(O)=C(C(N)=O)C(=O)[C@@]2(O)C(O)=C3C(=O)c4c(O)ccc(C(=O)CNCC(C)(C)C)c4C[C@H]3C[C@@H]12 [BP]	16 µg/mL (≈ 29.5 µM)	2 µg/mL (≈ 3.69 µM)	2 µg/mL (≈ 3.69 µM)	64 µg/mL (≈ 118 µM)	32 µg/mL (≈ 59.1 µM)	32 µg/mL (≈ 59.1 µM)	64 µg/mL (≈ 118 µM)	> 42.9 µM	> 42.9 µM	>138.32 µM	>138.32 µM
COCCNCc1ccoc1-c1ccc(O)c2c1C[C@H]1C[C@H]3[C@H](N(C)C)C(O)=C(C(N)=O)C(=O)[C@@]3(O)C(O)=C1C2=O [BQ]	4 µg/mL (≈ 7.05 µM)	0.06 µg/mL (≈ 0.106 µM)	0.06 µg/mL (≈ 0.106 µM)	64 µg/mL (≈ 113 µM)	1 µg/mL (≈ 1.76 µM)	1 µg/mL (≈ 1.76 µM)	64 µg/mL (≈ 113 µM)	> 141 µM	> 141 µM	>140.51 µM	>140.51 µM
CCOC(=O)N1CCN(CC(=O)c2ccc(O)c3c2C[C@H]2C[C@H]4[C@H](N(C)C)C(O)=C(C(N)=O)C(=O)[C@@]4(O)C(O)=C2C3=O)CC1 [BR]	0.5 µg/mL (≈ 0.816 µM)	0.06 µg/mL (≈ 0.0979 µM)	0.06 µg/mL (≈ 0.0979 µM)	64 µg/mL (≈ 104 µM)	8 µg/mL (≈ 13.1 µM)	8 µg/mL (≈ 13.1 µM)	64 µg/mL (≈ 104 µM)	> 40.7 µM	> 40.7 µM	>131.28 µM	>131.28 µM
CC(=O)N1CCN(CC(=O)c2ccc(O)c3c2C[C@H]2C[C@H]4[C@H](N(C)C)C(O)=C(C(N)=O)C(=O)[C@@]4(O)C(O)=C2C3=O)CC1 [BS]	8 µg/mL (≈ 13.7 µM)	1 µg/mL (≈ 1.72 µM)	1 µg/mL (≈ 1.72 µM)	64 µg/mL (≈ 110 µM)	32 µg/mL (≈ 54.9 µM)	64 µg/mL (≈ 110 µM)	64 µg/mL (≈ 110 µM)	> 145 µM	> 145 µM	>144.92 µM	>144.92 µM
CN(C)[C@@H]1C(O)=C(C(N)=O)C(=O)[C@@]2(O)C(O)=C3C(=O)c4c(O)ccc(C(=O)CNCC(F)(F)F)c4C[C@H]3C[C@@H]12 [BT]	2 µg/mL (≈ 3.61 µM)	0.06 µg/mL (≈ 0.108 µM)	0.06 µg/mL (≈ 0.108 µM)	64 µg/mL (≈ 116 µM)	8 µg/mL (≈ 14.5 µM)	2 µg/mL (≈ 3.61 µM)	64 µg/mL (≈ 116 µM)	> 47 µM	> 47 µM	>151.65 µM	>151.65 µM
CN(C)[C@@H]1C(O)=C(C(N)=O)C(=O)[C@@]2(O)C(O)=C3C(=O)c4c(O)ccc(C(=O)CN5CCN(C6CCCCC6)CC5)c4C[C@H]3C[C@@H]12 [BU]	1 µg/mL (≈ 1.61 µM)	0.13 µg/mL (≈ 0.209 µM)	0.06 µg/mL (≈ 0.0964 µM)	2 µg/mL (≈ 3.21 µM)	0.5 µg/mL (≈ 0.803 µM)	1 µg/mL (≈ 1.61 µM)	64 µg/mL (≈ 103 µM)	> 123 µM	> 123 µM	>122.93 µM	>122.93 µM
